Results reported in paper PMC2374418, “A prolonged methoxymorpholino doxorubicin (PNU-152243 or MMRDX) infusion schedule in patients with solid tumours: a phase 1 and pharmacokinetic study” (British Journal of Cancer, 2000).

Key:
[1] = Pharmacokinetics in plasma and urine, first cycle, non-compartmental analysis
Source text: Nowadays, anthracyclines play an important role in chemothera- peutic treatment of a wide variety of tumour types. The clinical use of anthracyclines is limited by their toxicity profile, especially irreversible, cumulative dose-related cardiotoxicity, and by intrinsic or acquired resistance of tumours cells. Mechanisms of this resistance consist of several pathways, such as overexpression of drug efflux pumps (i.e. P-glycoprotein), decrease in topoiso- merase II enzyme levels, and increase in cellular detoxifying capacity (Kaye and Merry, 1985; Deffie et al, 1989; de Jong et al, 1990; Ford and Hait, 1990; Roninson, 1997). Morpholinyl anthracyclines, such as methoxymorpholino doxorubicin (MMRDX or PNU-152243), were synthesized in search for new anthracyclines with at least partially novel modes of action, including activity on multidrug-resistant (MDR) tumours. MMRDX is a novel doxorubicin derivative in which the nitrogen atom of the daunosamine is enclosed in a methoxymor- pholino ring (Figure 1). […] The working mechanism of morpholinyl anthracyclines appears to be different from other anthracyclines. Morpholinyl anthracyclines inhibit ribosomal gene transcription as well as topoisomerase I-mediated DNA-cleavage (Wassermann et al, 1988, 1990). […] Metabolic conversion of MMRDX by human liver microsomes and NADPH potentiated the cytotoxicity in an ovarian carcinoma cell line (Lau et al, 1994). […] Therefore, we decided to perform a phase I study with MMRDX administered as a 3 h infusion every 4 weeks in order to try to increase the MTD as compared with bolus administration. In addition, we assessed pharmacokinetics of prolonged MMRDX-infusion. A prolonged methoxymorpholino doxorubicin (PNU- 152243 or MMRDX) infusion schedule in patients with solid tumours: a phase 1 and pharmacokinetic study E Fokkema1 , J Verweij2 , AT van Oosterom3 , DRA Uges1 , R Spinelli4 , O Valota4 , EGE de Vries1 and HJM Groen1 1 Department of Pulmonology, Department of Pharmacy, Department of Internal Medicine, University Hospital Groningen, PO Box 30.001, 9700 RB Groningen, The Netherlands; 2 Rotterdam Cancer Institute and University Hospital, Rotterdam, The Netherlands; 3 University Hospital Leuven, Belgium; 4 Pharmacia & Upjohn, Milan, Italy Summary The aim of this phase I study was to assess feasibility, pharmacokinetics and toxicity of methoxymorpholino doxorubicin (MMRDX or PNU-152243) administered as a 3 h intravenous infusion once every 4 weeks. […] The first cohort of patients was treated with 1 mg m-2 of MMRDX. The next cohorts received 1.25 mg m-2 and 1.5 mg m-2 respectively. […] (c) 2000 Cancer Research Campaign Keywords: methoxymorpholino doxorubicin; pharmacokinetics; phase I study 767 Received 6 January 1999 Revised 2 August 1999 Accepted 25 August 1999 Correspondence to: EGE de Vries British Journal of Cancer (2000) 82(4), 767-771 (c) 2000 Cancer Research Campaign DOI: 10.1054/ bjoc.1999.0996, available online at http://www.idealibrary.com on PATIENTS AND METHODS Patients The study was performed between December 1994 and June 1996. Patients with intrinsic anthracycline-resistant tumours were accrued in three different centres in Belgium and The Netherlands.

[2] = test system: various tumour cell lines, including MDR tumour cell lines; design: method as in ref Danesi et al, 1993; Kuhl et al, 1993; van der Graaf et al, 1995; Bakker et al, 1997; details: ref Danesi et al, 1993, Kuhl et al, van der Graaf et al, 1995, Bakker et al, 1997; cited from earlier work
[3] = test system: intrinsically anthracycline-resistant tumours; assay: Tumour response according to WHO criteria; assay type: in vivo, human; details: 3 h i.v. infusion, 1.0-1.5 mg m-2, 13 evaluable patients
Source text: Nowadays, anthracyclines play an important role in chemothera- peutic treatment of a wide variety of tumour types. The clinical use of anthracyclines is limited by their toxicity profile, especially irreversible, cumulative dose-related cardiotoxicity, and by intrinsic or acquired resistance of tumours cells. Mechanisms of this resistance consist of several pathways, such as overexpression of drug efflux pumps (i.e. P-glycoprotein), decrease in topoiso- merase II enzyme levels, and increase in cellular detoxifying capacity (Kaye and Merry, 1985; Deffie et al, 1989; de Jong et al, 1990; Ford and Hait, 1990; Roninson, 1997). Morpholinyl anthracyclines, such as methoxymorpholino doxorubicin (MMRDX or PNU-152243), were synthesized in search for new anthracyclines with at least partially novel modes of action, including activity on multidrug-resistant (MDR) tumours. MMRDX is a novel doxorubicin derivative in which the nitrogen atom of the daunosamine is enclosed in a methoxymor- pholino ring (Figure 1). […] The working mechanism of morpholinyl anthracyclines appears to be different from other anthracyclines. Morpholinyl anthracyclines inhibit ribosomal gene transcription as well as topoisomerase I-mediated DNA-cleavage (Wassermann et al, 1988, 1990). […] In addition, we assessed pharmacokinetics of prolonged MMRDX-infusion. […]

With `COc1cccc2c1C(=O)c1c(O)c3c(c(O)c1C2=O)C[C@@](O)(C(=O)CO)C[C@@H]3O[C@H]1C[C@H](N2CCO[C@H](OC)C2)[C@H](O)[C@H](C)O1` [MMRDX, methoxymorpholino doxorubicin] the “% Dose in urine, median (range)” value ([1]; 1.0 mg m-2 (n = 3)) was 1.6 (0.53-1.74) %, the “% Dose in urine, median (range)” value ([1]; 1.25 mg m-2 (n = 6)) was 2.1 (0.35-2.6) % and the “Cl (plasma clearance), median (range)” value ([1]; 1.25 mg m-2, n = 4) was 649.0 (506.3-812.3) ml min-1 m-2. The “Vss, median (range)” value ([1]; 1.25 mg m-2, n = 4) was 2891.5 (1742-3371) l m-2, the “Vz, median (range)” value ([1]; 1.25 mg m-2, n = 4) was 3942.5 (1997-4540) l m-2 and the “t1/2 z (printed 'tA z'), median (range)” value ([1]; 1.25 mg m-2, n = 4) was 60.9 (45.6-88.8) h. The “% Dose in urine, median (range)” value ([1]; 1.5 mg m-2 (n = 3)) was 2.47 (1.71-2.49) %, the “Cl (plasma clearance), median (range)” value ([1]; 1.5 mg m-2, n = 2) was 741.2 (659-823.2) ml min-1 m-2 and the “Vss, median (range)” value ([1]; 1.5 mg m-2, n = 2) was 2693.0 (2585-2801) l m-2. For the same compound, the “Vz, median (range)” value ([1]; 1.5 mg m-2, n = 2) was 2908.5 (2574-3243) l m-2, the “t1/2 z (printed 'tA z'), median (range)” value ([1]; 1.5 mg m-2, n = 2) was 46.5 (36.1-56.9) h and the Renal excretion ([1]; 3 h i.v. infusion) was “negligible”. For the same compound, the “Correlation between AUC0-tz or Cmax and nadirs of haemoglobin, platelets, leucocytes and neutrophils” value ([1]; pharmacodynamic analysis, linear regression, first cycle) was “no correlation”, the “AUC 0-tz, median (range)” value ([1]; plasma, 1.0 mg m-2 (n = 3)) was 9.4 (8.3-18.3) ng h ml-1 and the “Cmax, median (range)” value ([1]; plasma, 1.0 mg m-2 (n = 3)) was 2.8 (1.8-6.2) ng ml-1. The “Cmax, one patient with high value” ([1]; plasma, 1 mg m-2, one patient) was 6.17 ng/mL, the “AUC 0-tz, median (range)” value ([1]; plasma, 1.25 mg m-2 (n = 6)) was 15.1 (10.1-30.4) ng h ml-1 and the “Cmax, median (range)” value ([1]; plasma, 1.25 mg m-2 (n = 6)) was 2.3 (1.1-2.7) ng ml-1. For the same compound, the “AUC 0-tz, median (range)” value ([1]; plasma, 1.5 mg m-2 (n = 3)) was 21.4 (5.7-26.9) ng h ml-1, the “Cmax, median (range)” value ([1]; plasma, 1.5 mg m-2 (n = 3)) was 1.4 (1.2-2.1) ng ml-1 and the “Cmax, all other patients” value ([1]; plasma, all dose levels) was “around 2.0 ng ml-1”. The “AUC0-infinity from non-compartmental analysis” value ([1]; similar for all dose levels, seven patients) was “around 30 ng h ml-1”, the “Cytotoxic activity in vitro” value [2] was “potent cytotoxic activity” and the Tumour responses [3] was “No tumour response”.
